Assay results as given in US11400063B2, “Early administration of low-dose colchicine after myocardial infarction” (INSTITUT DE CARDIOLOGIE DE MONTREAL, priority 2019, dated 2022).

How the values were obtained:
Assay type in all cases: in vivo, human
[1] = COLCOT biomarkers of inflammation; details: baseline to 12 months
Description: (§1) Additional prespecified exploratory end points included the change from baseline to 6 months in the high-sensitivity C-reactive protein level and the change from baseline to 12 months in the white-cell count. The C-reactive protein biomarker substudy was implemented after a protocol amendment and was optional for sites and for patients; 34 sites chose to participate in this substudy.
(§2) The analysis of the primary end point was repeated in the per-protocol population (i.e., patients without major protocol deviations). Secondary and exploratory end points expressed as time to event were analyzed similarly. The changes from baseline to follow-up were analyzed with the use of an analysis of covariance model with adjustment for baseline value, and estimates of treatment effect are presented with 95% confidence intervals.
(§3) High-sensitivity C-reactive protein was measured in a subgroup of only 207 patients at the time of randomization and 6 months later, and the median concentration at trial entry was 4.28 mg per liter. […] The adjusted geometric mean percent changes in the high-sensitivity C-reactive protein level at 6 months after myocardial infarction were −70.0% in the colchicine group and −66.6% in the placebo group, and the placebo-adjusted geometric mean percent change was −10.1% percentage points in the colchicine group (95% CI, −28.6 to 13.4) (Table 17).
(§4) In Table 17, the placebo-adjusted geometric mean percent change was obtained by exponentiating the adjusted mean difference between groups from the analysis of covariance model (based on log-transformed data), then subtracting 1 and multiplying by 100.
(§5) In addition, the C-reactive protein biomarker sub-study was implemented following a protocol amendment and was optional for sites and for patients; 34 sites accepted to participate in this substudy. There were 213 and 208 patients who provided blood samples at baseline and 6 months, respectively. Paired baseline and 6-month hs-CRP values were available in 207 patients. Clinically available white blood cell counts were obtained from 2598 patients at baseline and 1998 patients at 12 months, and paired baseline and 12-month values were available in 1972 patients. Statistical analysis was conducted on the patients who provided both baseline and follow-up data and as these were exploratory analyses, no missing data was imputed.

[2] = system: high-sensitivity C-reactive protein level and white-cell count; experiment: COLCOT biomarkers of inflammation; details: for Hs-C reactive protein, geometric mean: N = 99; for Total white blood cell count, geometric mean: N = 992
Description: as §1, §2, §3, §4, §5

[3] = system: patients recruited within 30 days after a myocardial infarction; experiment: COLCOT safety and adverse events (safety population)
Procedure: All serious adverse events were recorded. The only other adverse events recorded were those that were considered to be related to the gastrointestinal system, events that were judged by the investigator to be related to colchicine or placebo, or laboratory abnormalities that had been judged by the investigator to be clinically significant.

[4] = baseline to 12 months, listed as colchicine
[5] = safety population, listed as colchicine

COc1cc2c(c(OC)c1OC)-c1ccc(OC)c(=O)cc1[C@@H](NC(C)=O)CC2 [Colchicine, colchicine]
Circulating lymphocytes, Adjusted GM percent change [1]: 1.80%
Hs-C reactive protein, geometric mean ([2]; 6 months): 1.37 mg/L
Circulating lymphocytes, geometric mean ([2]; 12 months): 1.83 10^3/μL
Circulating neutrophils, geometric mean ([2]; 12 months): 3.95 10^3/μL
Total white blood cell count, geometric mean ([2]; 12 months): 6.95 10^3/μL
Circulating lymphocytes, geometric mean ([2]; Randomization): 1.79 10^3/μL
Circulating neutrophils, geometric mean ([2]; Randomization): 5.45 10^3/μL
Hs-C reactive protein, geometric mean ([2]; Randomization): 4.27 mg/L
Total white blood cell count, geometric mean ([2]; Randomization): 8.54 10^3/μL
Hs-C reactive protein, Adjusted GM percent change ([2]; baseline to 6 months): −70.0%
Hs-C reactive protein, Placebo-adjusted GM percent change ([2]; baseline to 6 months): −10.1%
Circulating lymphocytes, Placebo-adjusted GM percent change ([2]; baseline to 12 months): 1.10%
Circulating neutrophils, Adjusted GM percent change ([2]; baseline to 12 months): −27.63%
Circulating neutrophils, Placebo-adjusted GM percent change ([2]; baseline to 12 months): 0.45%
Total white blood cell count, Adjusted GM percent change ([2]; baseline to 12 months): −18.81%
Total white blood cell count, Placebo-adjusted GM percent change ([2]; baseline to 12 months): 0.26%
Total white blood cell count, Adjusted GM percent change [2, 4]: −18.8%
Total white blood cell count, Placebo-adjusted GM percent change [2, 4]: 0.3%
reduction in the C-reactive protein level ([2]; over the first 6 months after myocardial infarction, both trial groups): > 65%
trial regimen discontinued, % of patients ([3]; at the end of the trial): 18.4%
incidence of septic shock ([3]; in contrast to canakinumab): did not increase
Anemia, number of patients ([3]; safety population): 14 number
Anemia, percent of patients ([3]; safety population): (0.6) percent
Any related adverse event, percent of patients ([3]; safety population): (16.0) percent
Any serious adverse event, number of patients ([3]; safety population): 383 number
Any serious adverse event, percent of patients ([3]; safety population): (16.4) percent
Cancer, number of patients ([3]; safety population): 43 number
Cancer, percent of patients ([3]; safety population): (1.8) percent
Diarrhea adverse event, number of patients ([3]; safety population): 225 number
Diarrhea adverse event, percent of patients ([3]; safety population): (9.7) percent
Flatulence adverse event, number of patients ([3]; safety population): 15 number
Flatulence adverse event, percent of patients ([3]; safety population): (0.6) percent
Gastrointestinal adverse event, number of patients ([3]; safety population): 408 number
Gastrointestinal adverse event, percent of patients ([3]; safety population): (17.5) percent
Gastrointestinal hemorrhage, number of patients ([3]; safety population): 7 number
Gastrointestinal hemorrhage, percent of patients ([3]; safety population): (0.3) percent
Gastrointestinal serious adverse event, number of patients ([3]; safety population): 46 number
Gastrointestinal serious adverse event, percent of patients ([3]; safety population): (2.0 ) percent
Hospitalization for heart failure, number of patients ([3]; safety population): 25 number
Hospitalization for heart failure, percent of patients ([3]; safety population): (1.1) percent
Infection serious adverse event, number of patients ([3]; safety population): 51 number
Infection serious adverse event, percent of patients ([3]; safety population): (2.2) percent
Leukopenia, number of patients ([3]; safety population): 2 number
Leukopenia, percent of patients ([3]; safety population): (0.1) percent
Nausea adverse event, number of patients ([3]; safety population): 43 number
Nausea adverse event, percent of patients ([3]; safety population): (1.8) percent
Pneumonia serious adverse event, number of patients ([3]; safety population): 21 number
Pneumonia serious adverse event, percent of patients ([3]; safety population): (0.9) percent
Septic shock serious adverse event, number of patients ([3]; safety population): 2 number
Septic shock serious adverse event, percent of patients ([3]; safety population): (0.1) percent
Thrombocytopenia, number of patients ([3]; safety population): 3 number
Thrombocytopenia, percent of patients ([3]; safety population): (0.1) percent
Any related adverse event, number of patients ([3]; safety population, N = 2330): 372 number
Any related adverse event, percent of patients [3, 5]: 16.0%
Any serious adverse event, percent of patients [3, 5]: 16.4%
Diarrhea adverse event, percent of patients [3, 5]: 9.7%
Gastrointestinal adverse event, percent of patients [3, 5]: 17.5%
Infection serious adverse event, percent of patients [3, 5]: 2.2%
Nausea adverse event, percent of patients [3, 5]: 1.8%
Pneumonia serious adverse event, percent of patients [3, 5]: 0.9%
serious adverse event of myopathy linked to colchicine ([3]; statins used in 99% of trial participants): no serious adverse event
